Active and inactive are the calls of the source. The rule behind the calls is not given here.
tested on: Escherichia coli; assay: Potentiation of rifampicin-induced antibacterial activity against Escherichia coli ATCC 25922 assessed as rifampicin MIC in low salt containing media by Mueller-Hinton broth based assay; type: functional; details: not given

Row | SMILES | MIC
1 | NC[C@H]1O[C@@H](OCCC23CC4CC(CC(C4)C2)C3)[C@H](N)[C@@H](OCc2ccc3ccccc3c2)[C@H]1N | 2 µg/mL

tested on: Escherichia coli; assay: Potentiation of rifampicin-induced antibacterial activity against Escherichia coli […] assessed as fold change in rifampicin MIC at 2 to 8 microg/ml in high concentration of Ca++ and Mg++ containing media by Mueller-Hinton broth based assay; type: functional; details: dose 2-8 µg/ml

Row | SMILES | fold change (FC)
2 | NC[C@H]1O[C@@H](OCCC23CC4CC(CC(C4)C2)C3)[C@H](N)[C@@H](OCc2ccc3ccccc3c2)[C@H]1N | 1

tested on: Escherichia coli; assay: Potentiation of rifampicin-induced antibacterial activity against Escherichia coli ATCC 25922 assessed as fold change in rifampicin MIC in low salt containing media by Mueller-Hinton broth based assay; type: functional; details: not given

Row | SMILES | fold change (FC)
3 | NC[C@H]1O[C@@H](OCCC23CC4CC(CC(C4)C2)C3)[C@H](N)[C@@H](OCc2ccc3ccccc3c2)[C@H]1N | 16

tested on: Acinetobacter baumannii; assay: Potentiation of rifampicin-induced antibacterial activity against Acinetobacter baumannii ATCC 17978 assessed as fold change in rifampicin MIC at 2 to 8 microg/ml in high concentration of Ca++ and Mg++ containing media by Mueller-Hinton broth based assay; type: functional; details: dose 2-8 µg/ml

Row | SMILES | fold change (FC)
4 | NC[C@H]1O[C@@H](OCCC23CC4CC(CC(C4)C2)C3)[C@H](N)[C@@H](OCc2ccc3ccccc3c2)[C@H]1N | 1

tested on: Acinetobacter baumannii; assay: Antibacterial activity against Acinetobacter baumannii ATCC 17978 in low salt containing media by Mueller-Hinton broth based assay; type: functional; details: not given

Row | SMILES | MIC
5 | NC[C@H]1O[C@@H](OCCC23CC4CC(CC(C4)C2)C3)[C@H](N)[C@@H](OCc2ccc3ccccc3c2)[C@H]1N | 16 µg/mL

tested on: Escherichia coli; assay: Antibacterial activity against Escherichia coli ATCC 25922 in low salt containing media by Mueller-Hinton broth based assay; type: functional; details: not given

Row | SMILES | MIC
6 | NC[C@H]1O[C@@H](OCCC23CC4CC(CC(C4)C2)C3)[C@H](N)[C@@H](OCc2ccc3ccccc3c2)[C@H]1N | 8 µg/mL

tested on: Escherichia coli; assay: Potentiation of rifampicin-induced antibacterial activity against Escherichia coli clinical isolate 107115 at 1/4 MIC in low salt containing media by Mueller-Hinton broth based assay; type: functional, organism-based; details: not given

Row | SMILES | Activity
7 | NC[C@H]1O[C@@H](OCCC23CC4CC(CC(C4)C2)C3)[C@H](N)[C@@H](OCc2ccc3ccccc3c2)[C@H]1N | inactive

tested on: Acinetobacter baumannii; assay: Potentiation of rifampicin-induced antibacterial activity against Acinetobacter baumannii ATCC 17978 assessed as rifampicin MIC at 2 to 8 microg/ml in high concentration of Ca++ and Mg++ containing media by Mueller-Hinton broth based assay; type: functional; details: dose 2-8 µg/ml

Row | SMILES | MIC
8 | NC[C@H]1O[C@@H](OCCC23CC4CC(CC(C4)C2)C3)[C@H](N)[C@@H](OCc2ccc3ccccc3c2)[C@H]1N | 4 µg/mL

tested on: Escherichia coli; assay: Potentiation of rifampicin-induced antibacterial activity against Escherichia coli ATCC 25922 assessed as rifampicin MIC at 16 microg/ml in high concentration of Ca++ and Mg++ containing media by Mueller-Hinton broth based assay; type: functional; details: dose 16 µg/ml

Row | SMILES | MIC
9 | NC[C@H]1O[C@@H](OCCC23CC4CC(CC(C4)C2)C3)[C@H](N)[C@@H](OCc2ccc3ccccc3c2)[C@H]1N | 16 µg/mL

tested on: Acinetobacter baumannii; assay: Potentiation of rifampicin-induced antibacterial activity against Acinetobacter baumannii ATCC 17978 assessed as rifampicin MIC in low salt containing media by Mueller-Hinton broth based assay; type: functional; details: not given

Row | SMILES | MIC
10 | NC[C@H]1O[C@@H](OCCC23CC4CC(CC(C4)C2)C3)[C@H](N)[C@@H](OCc2ccc3ccccc3c2)[C@H]1N | 4 µg/mL

tested on: Pseudomonas aeruginosa; assay: Potentiation of rifampicin-induced antibacterial activity against Pseudomonas aeruginosa PAO1 assessed as rifampicin MIC in low salt containing media by Mueller-Hinton broth based assay; type: functional; details: not given

Row | SMILES | MIC
11 | NC[C@H]1O[C@@H](OCCC23CC4CC(CC(C4)C2)C3)[C@H](N)[C@@H](OCc2ccc3ccccc3c2)[C@H]1N | 8 µg/mL

tested on: not listed separately; assay: Cytotoxicity against human HepG2 cells assessed as cell viability at 9 uM relative to control; type: toxicity, cell-based; details: read-out: Activity

Row | SMILES | viability at 9 µM
12 | NC[C@H]1O[C@@H](OCCC23CC4CC(CC(C4)C2)C3)[C@H](N)[C@@H](OCc2ccc3ccccc3c2)[C@H]1N | 76%

tested on: not listed separately; assay: Cytotoxicity against HEK293 cells assessed as cell viability at 9 uM relative to control; type: toxicity, cell-based; details: human, read-out: Activity

Row | SMILES | viability at 9 µM
13 | NC[C@H]1O[C@@H](OCCC23CC4CC(CC(C4)C2)C3)[C@H](N)[C@@H](OCc2ccc3ccccc3c2)[C@H]1N | 46.7%

tested on: Escherichia coli; assay: Potentiation of rifampicin-induced antibacterial activity against Escherichia coli […] assessed as fold change in rifampicin MIC at 16 microg/ml in high concentration of Ca++ and Mg++ containing media by Mueller-Hinton broth based assay; type: functional; details: dose 16 µg/ml

Row | SMILES | fold change (FC)
14 | NC[C@H]1O[C@@H](OCCC23CC4CC(CC(C4)C2)C3)[C@H](N)[C@@H](OCc2ccc3ccccc3c2)[C@H]1N | 8

tested on: Escherichia coli; assay: Antibacterial activity against Escherichia coli […] in high concentration of Ca++ and Mg++ containing media by Mueller-Hinton broth based assay; type: functional; details: not given

Row | SMILES | MIC
15 | NC[C@H]1O[C@@H](OCCC23CC4CC(CC(C4)C2)C3)[C@H](N)[C@@H](OCc2ccc3ccccc3c2)[C@H]1N | > 128 µg/mL

tested on: Escherichia coli; assay: Potentiation of rifampicin-induced antibacterial activity against Escherichia coli clinical isolate 94393 at 1/4 MIC in low salt containing media by Mueller-Hinton broth based assay; type: functional, organism-based; details: not given

Row | SMILES | Activity
16 | NC[C@H]1O[C@@H](OCCC23CC4CC(CC(C4)C2)C3)[C@H](N)[C@@H](OCc2ccc3ccccc3c2)[C@H]1N | Active

tested on: Acinetobacter baumannii; assay: Potentiation of rifampicin-induced antibacterial activity against Acinetobacter baumannii ATCC 17978 assessed as rifampicin MIC at 16 microg/ml in high concentration of Ca++ and Mg++ containing media by Mueller-Hinton broth based assay; type: functional; details: dose 16 µg/ml

Row | SMILES | MIC
17 | NC[C@H]1O[C@@H](OCCC23CC4CC(CC(C4)C2)C3)[C@H](N)[C@@H](OCc2ccc3ccccc3c2)[C@H]1N | 16 µg/mL

tested on: Acinetobacter baumannii; assay: Potentiation of rifampicin-induced antibacterial activity against Acinetobacter baumannii ATCC 17978 assessed as fold change in rifampicin MIC at 16 microg/ml in high concentration of Ca++ and Mg++ containing media by Mueller-Hinton broth based assay; type: functional; details: dose 16 µg/ml

Row | SMILES | fold change (FC)
18 | NC[C@H]1O[C@@H](OCCC23CC4CC(CC(C4)C2)C3)[C@H](N)[C@@H](OCc2ccc3ccccc3c2)[C@H]1N | 2

tested on: Acinetobacter baumannii; assay: Potentiation of rifampicin-induced antibacterial activity against multidrug resistant Acinetobacter baumannii clinical isolate 110193 at 1/4 MIC in low salt containing media by Mueller-Hinton broth based assay; type: functional, organism-based; details: not given

Row | SMILES | Activity
19 | NC[C@H]1O[C@@H](OCCC23CC4CC(CC(C4)C2)C3)[C@H](N)[C@@H](OCc2ccc3ccccc3c2)[C@H]1N | inactive

tested on: Acinetobacter baumannii; assay: Potentiation of rifampicin-induced antibacterial activity against multidrug resistant Acinetobacter baumannii AB027 at 1/4 MIC in low salt containing media by Mueller-Hinton broth based assay; type: functional, organism-based; details: not given

Row | SMILES | Activity
20 | NC[C@H]1O[C@@H](OCCC23CC4CC(CC(C4)C2)C3)[C@H](N)[C@@H](OCc2ccc3ccccc3c2)[C@H]1N | inactive

— ChEMBL document CHEMBL5584201, “Amphiphilic tribasic galactosamines potentiate rifampicin in Gram-negative bacteria at low Mg++/Ca++concentrations” (Bioorg Med Chem Lett, 2024)
